SMILES strings stand for the structures.

Three compounds from PMC11280065, “^64Cu^2+ Complexes of Tripodal Amine Ligands’ In Vivo Tumor and Liver Uptakes and Intracellular Cu Distribution in the Extrahepatic Bile Duct Carcinoma Cell Line TFK-1: A Basic Comparative Study” (Pharmaceuticals, 2024) can be followed below.

The test system of series [1] is mice bearing TFK-1-RFP cells. Conditions: mean ± SD.
The next series concerns TFK-1 cells. Description: Micro-PIXE analysis of intracellular Cu distribution. The series is classed as cell-based, human. Particulars: compared among the three Cu2+ complexes and Cu2+ ions, no significant differences. The source says: A positive correlation was observed between in vitro whole-cell uptake and in vivo tumor uptake (R = 0.992, p = 0.00772) (Figure S2). Similarly, we observed a consistent correlation between in vitro nuclear uptake and in vivo tumor uptake (417.6 counts ± 150.02 for Cu^2+-Tren, 203.00 counts ± 25.13 for Cu^2+-Dien, 94.82 counts ± 48.07 for Cu^2+-TPMA, and 35.57 counts ± 25.02 for Cu^2+ ions) (p < 0.05).
The human extrahepatic bile duct carcinoma cell line TFK-1 was obtained from the RIKEN Bioresource Research Center (Ibaraki, Japan) and immediately expanded and frozen in our laboratory. […] Exponentially growing cells were detached from plates using trypsin (0.5 w/v% Trypsin-5.3 mmol/L EDTA·4Na Solution without Phenol Red (×10), Fujifilm Wako Pure Chemical Corporation, Osaka, Japan), and the number of viable cells was determined using the trypan blue dye (Bio-Rad, Hercules CA, USA) exclusion method.
A micro-PIXE analysis was carried out at the QST Electrostatic Accelerator Facility. […] Cells were subsequently stained with DAPI (4′,6-diamidino-2-phenylindole; Bio-Rad, Hercules, CA, USA) for nuclear localization and observed under a fluorescence microscope (BZ-X810, Keyence, Osaka, Japan). […] Distributions of Cu, P, K, Ca, Al, Fe, and S in each group were determined using Kα lines. […] Nuclei localization was determined via fluorescence microscope images of DAPI staining. […]

As for `[Cl-].[Cl-].[Cu+2].c1ccc(CN(Cc2ccccn2)Cc2ccccn2)nc1` [Cu^2+-TPMA], in series [1] (TFK-1-RFP-xenografted SCID beige mice, 2.5 h after intravenous injection of 1.85 MBq, n = 3–4/group), the tumor uptake was 7.56 ± 0.41 %ID/g.

Consider `NCCNCCN.[Cl-].[Cl-].[Cu+2]` [Cu^2+-Dien], for which the urinary excretion in series [1] (urine collected during the 2.5 h post-administration, intravenous, TFK-1-RFP-xenografted mice) worked out at 1.68 ± 0.46 %ID.

On to `NCCN(CCN)CCN.[Cl-].[Cl-].[Cu+2]` [Cu^2+-Tren], for which, in the series on TFK-1 cells, the “percentage counts of nuclear uptake/whole-cell uptake” value is given as “highest average value”.
